Measurements taken from patent US20230270148A1, “BITTER BLOCKERS AND RELATED METHODS OF USE” (Conagen Inc., priority 2020, published 2023).

What was measured:
[1] = system: 0.25% caffeine solution; experiment: Sensory evaluation: bitterness reduction of a caffeine solution; assay type: in vivo; details: for Comments: taste and mouth feel comments, dosage per sample; for Estimated % bitterness reduction: one trained sensory evaluator, vs control, dosage (ppm) per sample (20 to 50-100 ppm)
Method: (§1) The bitter blocker candidates listed in Table 1 were prepared into a 1% sample solution with propylene glycol (i.e., 1 g of bitter blocker per 100 ml of propylene glycol) and heated to ensure complete solubilization. […] A trained sensory evaluator was asked to estimate the perceived bitterness reduction against the control, as well as to provide comments on how the addition of the individual sample solution modulated the taste and mouth feel profile of the resulting caffeine solution.

[2] = system: THC nanoemulsion; experiment: Sensory evaluation: bitterness reduction of THC; assay type: in vivo; details: dosage 50 or 100 ppm per sample; for Comments: THC nanoemulsion; for Estimated % bitterness reduction: THC nanoemulsion (10 mg THC per serving)
Method: (§2) The bitterness blocker candidates listed in Table 1 were prepared into a 1% sample solution with propylene glycol and heated to ensure complete solubilization. […] THC was first emulsified into a water-soluble nanoemulsion (10 mg THC per serving), to which was added the respective sample solution. A trained sensory evaluator was asked to estimate the perceived bitterness reduction against the control, as well as to provide comments on how the addition of the individual sample solution modulated the taste and mouth feel profile of the resulting nanoemulsion.

[3] = system: peach-flavored energy drink (caffeine, B vitamins); experiment: Sensory evaluation: bitterness reduction of a peach-flavored energy drink; assay type: in vivo; details: for Comments: dosage per sample; for Estimated % bitterness reduction: caffeine about 710 mg/l, dosage (ppm) per sample (20 to 50-100 ppm)
Method: as §1, with “The bitterness” for “The bitter”, “glycol” for “glycol (i.e., 1 g of bitter blocker per 100 ml of propylene glycol)”, “resulting peach-flavored energy drink.” for “resulting caffeine solution.”

[4] = system: melted dark chocolate pieces with 100% dark cacao; experiment: Sensory evaluation: bitterness reduction of dark chocolate pieces; assay type: in vivo; details: dosage 50 or 100 ppm per sample
Method: (§3) The bitterness blocker candidates listed in Table 1 were prepared into a 1% sample solution with propylene glycol and heated to ensure complete solubilization. […] Individually, the respective sample solution was added to melted dark chocolate pieces with 100% dark cacao. A trained sensory evaluator was asked to estimate the perceived bitterness reduction against the control, as well as to provide comments on how the addition of the individual sample solution modulated the taste and mouth feel profile of the resulting melted dark chocolate pieces.

[5] = system: cough syrup DELSYM (dextromethorphan HBr); experiment: Sensory evaluation: bitterness reduction of cough syrup DELSYM; assay type: in vivo; details: dosage 50 or 100 ppm per sample; for Estimated % bitterness reduction: 6000 mg/l of dextromethorphan
Method: as §3, with “a cough syrup sold under the trade name DELSYM®. The bitter-tasting agent contained in the cough syrup were dextromethorphan HBr USP 30 mg (as measured for each 5 ml teaspoon, i.e., 6000 mg/l of dextromethorphan).” for “melted dark chocolate pieces with 100% dark cacao.”, “cough syrup.” for “melted dark chocolate pieces.”

[6] = system: dark roast coffee; experiment: Sensory evaluation: bitterness reduction of dark roast coffee; assay type: in vivo; details: dosage 50 or 100 ppm per sample; for Estimated % bitterness reduction: caffeine about 740 mg/l
Method: The bitterness blocker candidates listed in Table 1 were prepared into a 1% sample solution with propylene glycol and heated to ensure complete solubilization. […] A trained sensory evaluator was asked to estimate the perceived bitterness reduction against the control, as well as to provide comments on how the addition of the individual sample solution modulated the taste and mouth feel profile of the resulting dark roast coffee.

[7] = system: CBD isolate nanoemulsion; experiment: Sensory evaluation: bitterness reduction of CBD isolate; assay type: in vivo; details: dosage 50 or 100 ppm per sample
Method: as §2, with “A CBD isolate” for “THC”, “was” for “was first”, “first,” for “(10 mg THC per serving),”, “solution. […]” for “solution.”

[8] = system: cough syrup ROBITUSSIN DM (dextromethorphan HBr and guaifenesin); experiment: Sensory evaluation: bitterness reduction of cough syrup ROBITUSSIN DM; assay type: in vivo; details: dosage 50 or 100 ppm per sample; for Estimated % bitterness reduction: 21000 mg/l of bitter tastants
Method: as §3, with “a cough syrup sold under the trade name ROBITUSSIN® DM. The bitter-tasting agents contained in the cough syrup were dextromethorphan HBr USP 20 mg and guaifenesin USP 400 mg (as measured for each 20 ml serving, or 21000 mg/l of bitter tastants in total).” for “melted dark chocolate pieces with 100% dark cacao.”, “cough syrup.” for “melted dark chocolate pieces.”

[9] = system: full spectrum CBD hemp oil nanoemulsion; experiment: Sensory evaluation: bitterness reduction of full spectrum CBD hemp oil; assay type: in vivo; details: dosage 50 or 100 ppm per sample
Method: as §2, with “A full spectrum CBD hemp oil” for “THC”, “was” for “was first”, “first,” for “(10 mg THC per serving),”, “solution. […]” for “solution.”, “resulting oil” for “resulting”

[10] = system: caffeine in water; experiment: Two-alternative forced choice (2AFC) difference test; assay type: in vivo
Method: The bitter blocker candidates BB09, BB11, and BB13 were subject to a two-alternative forced choice (2AFC) difference test wherein panelists were presented Control Caffeine solutions and Test solutions containing caffeine and one of three bitterness blocker candidates (BB09, BB 11, or BB13). Panelists were asked to evaluate the two samples and answer the question, “which one is more hitter?”
BB09 and BB11 were tested first. Three ounces of control (caffeine in water), BB09 in caffeine water, and BB11 in caffeine water were presented at room temperature in separate plastic souffle cups labeled with 3-digit codes. Ten sensory trained panelists evaluated each sample in three repetitions with a 10 minute break between repetitions. Panelists then completed the 2AFC. Data was collected on EveQuestion and analyzed on XLSTAT. Testing was conducted at Sensations Research according to FEMA guidelines.
BB13 was tested separately. Two ounces of control (caffeine in water), BB13 in caffeine water were presented at room temperature in separate plastic souffle cups labeled with 3-digit codes. Fifteen participants evaluated each sample in two repetitions with a 10 minute break between repetitions for a total of thirty evaluations as per the FEMA guidelines. Panelists then completed the 2AFC to identify the more bitter sample. Data was collected and analyzed on Compusense.

[11] = system: bitter-responsive human taste bud tissue-derived cells (hTBEC); experiment: ATP secretion detection assay (luminescence); assay type: cell-based
Method: The bitter blocker candidates were further characterized using bitter-responsive human taste bud tissue-derived cells (hTBEC) platforms and bioassays. Bitter-responsive hTBECs were treated with hitter blocker candidates and various bitter agonists to assess the efficacy of each bitter blocker candidate in reducing the bitterness of each of the various bitter agonists.
One industry standard bitter agonist was used as a control (L-Praziquantel), and five bitter blocker controls were used (Senomyx BB68, STX-001, sodium gluconate, eridictyol, and homoeridictyol).
BB09, BB11, and BB13 were first tested at various concentrations in combination with 100 μM Dextromethorphan-HBr.
Next, bitter blocker concentration ranges were narrowed (100 μM-1,000 μM) and compared to a fixed concentration of stimulus. […] BB13 was evaluated further by real time ATP secretion detection in pooled hTBEC 66 cells treated with 300 μM Theobromine.
Each culture was treated with BB09, BB11, BB13, STX001, or Senomyx BB68, as well as either Dextromethorphan-HBr at 1000 μM (FIGS. 18A-18C), Theobromine at 1,000 μM (FIGS. 19A-19C), Rebaudioside A at 1 mM (FIGS. 20A-20C), or Caffeine at 3 mM (FIGS. 21A-21C).

Row | SMILES | Comments [1] | Comments [2] | Comments [3] | Comments [4] | Comments [5] | Comments [6] | Comments [7] | Comments [9] | also measured
1 | COc1ccc(-c2cc(=O)c3c(O)cc(O)cc3o2)cc1 [BB01, Acacetin] | Some bitterness blocking on sides |  |  |  |  |  |  |  | 
2 | COc1cc([C@@H]2CC(=O)c3c(O)cc(O)cc3O2)ccc1O [BB02, Homoeriodictyol] |  | Some blocking on sides and tip | Some blocking on sides and tip | Some blocking on sides and tip | Some blocking on sides and tip | Some blocking on sides and tip | Some blocking on sides and tip | Some blocking on sides and tip | Comments [8]: Some blocking on sides and tip
3 | O=c1c(O)c(-c2ccc(O)cc2)oc2cc(O)cc(O)c12 [BB03, Kaempferol] | Some bitterness blocking on sides |  |  |  |  |  |  |  | 
4 | O=C1c2c(O)cc(O)cc2O[C@H](c2ccc(O)c(O)c2)[C@H]1O [BB04, Dihydroquercetin] | Some bitterness blocking on sides |  |  |  |  |  |  |  | 
5 | O=C1c2c(O)cc(O)cc2O[C@H](c2ccc(O)cc2)[C@H]1O [BB06, Dihydrokaempferol] | Some bitterness blocking on sides |  |  |  |  |  |  |  | 
6 | O=C1C[C@@H](c2ccc(O)c(O)c2)Oc2cc(O)cc(O)c21 [BB07, Eriodictyol] | Some bitterness blocking on all parts | Some bitterness blocking on all | Some bitterness blocking on all | Some bitterness blocking on all | Some bitterness blocking on all | Some bitterness blocking on all | Some bitterness blocking on all | Some bitterness blocking on all | Estimated % bitterness reduction [2]: 30%; Estimated % bitterness reduction [3]: 50%; Estimated % bitterness reduction [4]: 50%; Estimated % bitterness reduction [5]: 30%; Estimated % bitterness reduction [1]: 50%; Estimated % bitterness reduction [6]: 50%; Estimated % bitterness reduction [7]: 30%; Estimated % bitterness reduction [8]: 30%; Comments [8]: Some bitterness blocking on all; Estimated % bitterness reduction [9]: 30%
7 | COc1cc([C@@H]2CC(=O)c3c(O)cc(O[C@@H]4O[C@H](CO)[C@@H](O)[C@H](O)[C@H]4O)cc3O2)ccc1O [BB09, Homoeriodictyol 7-O-glucoside] | Good upfront bitterness reduction | Nice upfront bitterness reduction | Good upfront bitterness | Good bitterness reduction but | Covered up a good percentage of | Nice upfront bitterness reduction | Nice upfront bitterness reduction | Nice upfront bitterness reduction | Significant? ([10]; 2AFC, 90% confidence level, which sample is more bitter): Yes,; # Selected Variant (which is more bitter?) ([10]; of 30 responses (10 panelists, 3 evaluations), control caffeine in water vs variant in caffeine water): 10; real time Rebaudioside A-induced ATP secretion ([11]; 1 mM Rebaudioside A, blocker 1,000 μM, pooled hTBEC 56 cultures (FIG. 17)): attenuated; inhibition of the bitter agonists (ATP secretion) ([11]; hTBEC 66, hTBEC 56, hTBEC Donor H, Dextromethorphan-HBr at 1000 μM, Theobromine 1,000 μM, Rebaudioside A 1 mM or Caffeine 3 mM (FIGS. 18-21)): trends of inhibition in most cases
8 | O=C1C[C@@H](c2ccc(O[C@@H]3O[C@H](CO)[C@@H](O)[C@H](O)[C@H]3O)c(O)c2)Oc2cc(O)cc(O)c21 [BB12, Eriodictyol 4′-O-glucoside] | Some bitterness blocking on front |  |  |  |  |  |  |  | Estimated % bitterness reduction [2]: 30%; Estimated % bitterness reduction [3]: 30%; Estimated % bitterness reduction [4]: 30%; Estimated % bitterness reduction [5]: 30%; Estimated % bitterness reduction [1]: 30%; Estimated % bitterness reduction [6]: 30%; Estimated % bitterness reduction [7]: 30%; Estimated % bitterness reduction [8]: 30%; Estimated % bitterness reduction [9]: 30%
